Assays:
Assay in all cases: Test C preemergence
Assay type in all cases: in vivo
[1] = test system: wheat (winter wheat, Triticum aestivum); conditions: for Plant response rating, Wheat: scale 0 to 100, 0 no effect, 100 complete control
In short: (§1)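 Visual 0 (no effect) to 100 (complete control) ratings versus controls, taken 13–15 d after treatment in the greenhouse; dash means no result. Compounds in a surfactant-containing non-phytotoxic solvent blend were applied preemergence to seeds in loam-sand soil or postemergence to 1- to 4-leaf plants (2–18 cm) in peat-based medium.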

[2] = test system: nutsedge, yellow (yellow nutsedge, Cyperus esculentus); conditions: for Plant response rating, Nutsedge, Yellow: scale 0 to 100, 0 no effect, 100 complete control
In short: as §1

[3] = test system: johnsongrass (Sorghum halepense); conditions: for Plant response rating, Johnsongrass: scale 0 to 100, 0 no effect, 100 complete control
In short: as §1

[4] = test system: foxtail, giant (giant foxtail, Setaria faberii); conditions: for Plant response rating, Foxtail, Giant: scale 0 to 100, 0 no effect, 100 complete control
In short: as §1

[5] = test system: pigweed (Amaranthus retroflexus); conditions: for Plant response rating, Pigweed: scale 0 to 100, 0 no effect, 100 complete control
In short: as §1

[6] = test system: Galium (catchweed bedstraw, Galium aparine); conditions: for Plant response rating, Galium: scale 0 to 100, 0 no effect, 100 complete control
In short: as §1

[7] = test system: waterhemp (common waterhemp, Amaranthus rudis); conditions: for Plant response rating, Waterhemp: scale 0 to 100, 0 no effect, 100 complete control
In short: as §1

corn (Zea mays) = conditions: for Plant response rating, Corn: scale 0 to 100, 0 no effect, 100 complete control
In short: as §1

[8] = test system: morningglory (Ipomoea coccinea); conditions: for Plant response rating, Morningglory: scale 0 to 100, 0 no effect, 100 complete control
In short: as §1

[9] = test system: ryegrass, Italian (Italian ryegrass, Lolium multiflorum); conditions: for Plant response rating, Ryegrass, Italian: scale 0 to 100, 0 no effect, 100 complete control
In short: as §1

[10] = test system: barnyardgrass (Echinochloa crus-galli); conditions: for Plant response rating, Barnyardgrass: scale 0 to 100, 0 no effect, 100 complete control
In short: as §1

[11] = test system: oilseed rape (Brassica napus); conditions: for Plant response rating, Oilseed Rape: scale 0 to 100, 0 no effect, 100 complete control
In short: as §1

[12] = test system: ragweed (common ragweed, Ambrosia elatior); conditions: for Plant response rating, Ragweed: scale 0 to 100, 0 no effect, 100 complete control
In short: as §1

soybean (Glycine max) = conditions: for Plant response rating, Soybean: scale 0 to 100, 0 no effect, 100 complete control
In short: as §1

[13] = test system: lambsquarters (Chenopodium album); conditions: for Plant response rating, Lambsquarters: scale 0 to 100, 0 no effect, 100 complete control
In short: as §1

[14] = test system: velvetleaf (Abutilon theophrasti); conditions: for Plant response rating, Velvetleaf: scale 0 to 100, 0 no effect, 100 complete control
In short: as §1

[15] = test system: blackgrass (Alopecurus myosuroides); conditions: for Plant response rating, Blackgrass: scale 0 to 100, 0 no effect, 100 complete control
In short: as §1

[16] = test system: crabgrass, large (large crabgrass, Digitaria sanguinalis); conditions: for Plant response rating, Crabgrass, Large: scale 0 to 100, 0 no effect, 100 complete control
In short: as §1

[17] = 31 g ai/ha, 0 is no effect, 100 is complete control

O=C1NCC(c2cc(F)cc(Cl)c2)C1C(=O)Nc1cccc(F)c1F (stereo not drawn) [Compound 492]
Plant response rating (scale of 0 to 100), Wheat [1, 17]: 0 | Plant response rating, Wheat ([1]; 62 g ai/ha): 0 | Plant response rating, Wheat ([1]; 125 g ai/ha): 5 | Plant response rating, Wheat ([1]; 250 g ai/ha): 35 | Plant response rating (scale of 0 to 100), Nutsedge, Yellow [2, 17]: 0 | Plant response rating, Nutsedge, Yellow ([2]; 62 g ai/ha): 0 | Plant response rating, Nutsedge, Yellow ([2]; 125 g ai/ha): 0 | Plant response rating, Nutsedge, Yellow ([2]; 250 g ai/ha): 0 | Plant response rating (scale of 0 to 100), Johnsongrass [3, 17]: 20 | Plant response rating, Johnsongrass ([3]; 62 g ai/ha): 55 | Plant response rating, Johnsongrass ([3]; 125 g ai/ha): 80 | Plant response rating, Johnsongrass ([3]; 250 g ai/ha): 90 | Plant response rating (scale of 0 to 100), Foxtail, Giant [4, 17]: 90 | Plant response rating, Foxtail, Giant ([4]; 62 g ai/ha): 90 | Plant response rating, Foxtail, Giant ([4]; 125 g ai/ha): 90 | Plant response rating, Foxtail, Giant ([4]; 250 g ai/ha): 95 | Plant response rating (scale of 0 to 100), Pigweed [5, 17]: 0 | Plant response rating, Pigweed ([5]; 62 g ai/ha): 25 | Plant response rating, Pigweed ([5]; 125 g ai/ha): 75 | Plant response rating, Pigweed ([5]; 250 g ai/ha): 80 | Plant response rating (scale of 0 to 100), Galium [6, 17]: 85 | Plant response rating, Galium ([6]; 62 g ai/ha): 0 | Plant response rating, Galium ([6]; 125 g ai/ha): 0 | Plant response rating, Galium ([6]; 250 g ai/ha): 85 | Plant response rating (scale of 0 to 100), Waterhemp [7, 17]: 0 | Plant response rating, Waterhemp ([7]; 62 g ai/ha): 10 | Plant response rating, Waterhemp ([7]; 125 g ai/ha): 40 | Plant response rating, Waterhemp ([7]; 250 g ai/ha): 65 | Plant response rating (scale of 0 to 100), Corn (corn (Zea mays); [17]): 0 | Plant response rating, Corn (corn (Zea mays); 62 g ai/ha): 10 | Plant response rating, Corn (corn (Zea mays); 125 g ai/ha): 55 | Plant response rating, Corn (corn (Zea mays); 250 g ai/ha): 85 | Plant response rating (scale of 0 to 100), Morningglory [8, 17]: 0 | Plant response rating, Morningglory ([8]; 62 g ai/ha): 10 | Plant response rating, Morningglory ([8]; 125 g ai/ha): 20 | Plant response rating, Morningglory ([8]; 250 g ai/ha): 45 | Plant response rating (scale of 0 to 100), Ryegrass, Italian [9, 17]: 0 | Plant response rating, Ryegrass, Italian ([9]; 62 g ai/ha): 5 | Plant response rating, Ryegrass, Italian ([9]; 125 g ai/ha): 25 | Plant response rating, Ryegrass, Italian ([9]; 250 g ai/ha): 20 | Plant response rating (scale of 0 to 100), Barnyardgrass [10, 17]: 80 | Plant response rating, Barnyardgrass ([10]; 62 g ai/ha): 90 | Plant response rating, Barnyardgrass ([10]; 125 g ai/ha): 90 | Plant response rating, Barnyardgrass ([10]; 250 g ai/ha): 95 | Plant response rating (scale of 0 to 100), Oilseed Rape [11, 17]: 0 | Plant response rating, Oilseed Rape ([11]; 62 g ai/ha): 50 | Plant response rating, Oilseed Rape ([11]; 125 g ai/ha): 85 | Plant response rating, Oilseed Rape ([11]; 250 g ai/ha): 85 | Plant response rating (scale of 0 to 100), Ragweed [12, 17]: 0 | Plant response rating, Ragweed ([12]; 62 g ai/ha): 10 | Plant response rating, Ragweed ([12]; 125 g ai/ha): 35 | Plant response rating, Ragweed ([12]; 250 g ai/ha): 45 | Plant response rating (scale of 0 to 100), Soybean (soybean (Glycine max); [17]): 50 | Plant response rating, Soybean (soybean (Glycine max); 62 g ai/ha): 0 | Plant response rating, Soybean (soybean (Glycine max); 125 g ai/ha): 40 | Plant response rating, Soybean (soybean (Glycine max); 250 g ai/ha): 0 | Plant response rating (scale of 0 to 100), Lambsquarters [13, 17]: 25 | Plant response rating, Lambsquarters ([13]; 62 g ai/ha): 35 | Plant response rating, Lambsquarters ([13]; 125 g ai/ha): 40 | Plant response rating, Lambsquarters ([13]; 250 g ai/ha): 50 | Plant response rating (scale of 0 to 100), Velvetleaf [14, 17]: 0 | Plant response rating, Velvetleaf ([14]; 62 g ai/ha): 0 | Plant response rating, Velvetleaf ([14]; 125 g ai/ha): 5 | Plant response rating, Velvetleaf ([14]; 250 g ai/ha): 5 | Plant response rating (scale of 0 to 100), Blackgrass [15, 17]: 0 | Plant response rating, Blackgrass ([15]; 62 g ai/ha): 5 | Plant response rating, Blackgrass ([15]; 125 g ai/ha): 10 | Plant response rating, Blackgrass ([15]; 250 g ai/ha): 10 | Plant response rating (scale of 0 to 100), Crabgrass, Large [16, 17]: 90 | Plant response rating, Crabgrass, Large ([16]; 62 g ai/ha): 95 | Plant response rating, Crabgrass, Large ([16]; 125 g ai/ha): 95 | Plant response rating, Crabgrass, Large ([16]; 250 g ai/ha): 95
